Reference: patent publication US9365830B2, “Agents and methods for inhibiting human pluripotent stem cell growth” (VIACYTE, INC., priority 2010, dated 2016)
“Also recorded” adds a separate entry of the source.

What was measured:
[1] = test system: hESC suspension aggregate cultures, Stages 1-4 (pancreatic endoderm); experiment: Q-PCR marker gene expression, suspension aggregate cultures differentiated through Stages 1-4; assay type: cell-based, human; details: for PDX1 and NKX6.1 gene expression: Stages 2, 3 and 4, compared to the Controls
From the text: FIGS. 5A-5M. are bar graphs showing the relative gene expression levels of markers expressed in pluripotent cells or in cells of pancreatic lineage: OCT4 (FIG. 5A), MIXL (FIG. 5B), EOMES (FIG. 5C), CXCR4 (FIG. 5D), SOX17 (FIG. 5E), HNF1B (FIG. 5F), HNF4A (FIG. 5G), PDX1 (FIG. 5H), PTF1A (FIG. 5I), NKX2.2. (FIG. 5J), NGN3 (FIG. 5K), NKX6.1 (FIG. 5L) and PAX4 (FIG. 5M) with treatment of candidate selective cytotoxic agents from the LOPAC1280™ sublibrary (Table 4) to suspension aggregate cell cultures at Stages 1-4. Expression levels are normalized to the average expression levels of housekeeping genes. The graphs depict fold regulation compared to hESC sample. Ch.Cl=chelerythrine chloride; Deph.=dephostatin; AG=AG 490; SU=SU6656.
FIGS. 6A-6F are bar graphs showing the relative gene expression levels of markers of non-pancreatic lineage cells: SOX1 (FIG. 6A; e.g., at least observed in extraembryonic and neural cellss), ZIC1 (FIG. 6B; e.g., at least observed in early neural cells), PAX6 (FIG. 6C; e.g., at least observed in neural ectoderm cells), SOX7 (FIG. 6D; e.g., at least observed in extraembryonic cells), AFP (FIG. 6E; e.g., at least observed in liver cell and extraembryonic cells) and CDX2 (FIG. 6F; e.g., at least observed in extraembryonic cells) in compound-treated differentiations.
Effects of Candidate Inhibitor/Cytotoxic Agents in Suspension Aggregate Culture. The ideal inhibitor candidate for cell therapy would be compatible with pancreatic cell lineage viability in a manufacturing scale-up process (e.g. a suspension aggregate culture that could be propagated in a large bioreactor), as well as in small-scale cell culture, such as in 96-well plates or 6-well trays. Thus, an additional screen included conditions similar to those in a commercial-scale process. […] The remaining 4 compounds, chelerythrine chloride (Ch.Cl; Cmpd. No. 25), tyrphostin AG 490 (AG; Cmpd. No. 152), dephostatin (Deph; Cmpd. No. 48), and SU 6656 (SU; Cmpd. No. 126) were screened for selective inhibition of pluripotent stem cell growth in a suspension aggregate type culture, which is amenable to manufacturing scale-up process. Briefly, Human ESCs were aggregated in rotational culture and differentiated through Stages 1-4 to make pancreatic endoderm substantially as described in U.S. patent application Ser. No. 11/838,054, entitled COMPOSITIONS AND METHODS USEFUL FOR CULTURING DIFFERENTIABLE CELLS, filed Aug. 13, 2007; and U.S. patent application Ser. No. 12/264,760, entitled STEM CELL AGGREGATE SUSPENSION COMPOSITIONS AND METHODS OF DIFFERENTIATION THEREOF, filed Nov. 4, 2008, which are herein incorporated by reference in their entirety. RNA samples were collected from control and compound-treated cell cultures at various time points during the differentiation as above, for analysis by Q-PCR. FIGS. 5A-5M show the expression of markers characteristic of pluripotent stem cells or at least one of Stages 1-5. FIGS. 6A-6F show the expression of markers not normally expressed in pluripotent stem cells or Stages 1-5. Each graph includes 5 sections: QPCR samples were normalized to day 0 (hESC), which is the “Control” section farthest left on each graph of FIGS. 5A-5M; the other four sections to the right of the Control section correspond to the four compounds used to treat the cells (chelerythrine chloride (Ch.Cl; Cmpd. No. 25); tyrphostin AG 490 (AG490; Cmpd. No. 152), dephostatin (Deph; Cmpd. No. 48), and SU 6656 (SU6656; Cmpd. No. 126) left to right, respectively).

[2] = test system: differentiating Stage 1 cultures (definitive endoderm); experiment: Secondary screen on differentiating Stage 1 cultures in 6-well trays; assay type: cell-based, human; details: compounds added to differentiating Stage 1 cultures
From the text: The impedance assay on the hESCs using the compounds in Table 4 above gave greater than twenty (20) hits. However, the ideal candidate compound of the present invention should not only be inhibitory or cytotoxic to human pluripotent stem cells, such as hESCs or hIPSCs, but should at the same time have no effect on cell viability of differentiated or differentiating cell populations including Stage 1, 2, 3, 4 and 5 type cells cultures (definitive endoderm, foregut endoderm, posterior foregut, pancreatic endoderm and endocrine cells, respectively). […] Approximately 3×10^4 hES cells were plated per well and grown for 24 hrs in DC-HAIF defined medium (i.e. StemPro® hESC SFM medium (Life Technologies, Carlsbad, Calif.). Stage 1 or definitive endoderm differentiation was then induced by changing the medium and culturing in RPMI, 100 ng/mL Activin A, and 10 ng/mL of FGF2. […] of GSK-3 beta Inhibitor 15 (Calbiochem #361558) as added to the culture for the first 24 hours of differentiation only. 10 μM of each of the candidate compounds were added about 48 hours or 2 days after differentiation was induced (see FIGS. 3 C & D, large arrowhead), and the cells were cultured for an additional 2 days.
Secondary Screen with Selected Compounds. A secondary screen using 9 of the 10 candidate compounds in Table 5 was performed by adding the compounds to differentiating Stage 1 cultures (definitive endoderm) as described above. For the secondary screen, larger standard 6-well trays were used instead of the RT-CEAS 96-well culture plates used in primary screens employing impedance assays. Only 9 of the 10 compounds in Table 5 were tested because the 10th was not available in sufficient quantity at the time the assays were performed. In the larger, 6-well trays, 5 of the 9 compounds listed in Table 5 had no effect on viability of differentiating cells or differentiated definitive endoderm. […] This assay also confirmed that the viability of differentiating cells and differentiated definitive endoderm cells was apparently consistent regardless of the numbers of cells tested, or the size, volume, or source of the culture vessel.

SMILES	differentiation of non-pancreatic lineage cells, or “off-target” cells ([1]; FIGS. 6A-6F)	PDX1 and NKX6.1 gene expression [1]	Viability of Definitive Endoderm [2]	CDX2 gene expression (non-pancreatic marker) ([1]; FIG. 6F)	AFP gene expression (non-pancreatic marker) ([1]; FIG. 6E)
CN(N=O)c1cc(O)ccc1O [Dephostatin]	do not promote	increased	capable of growth and proliferation; also recorded: Viable	–	–
CN(C)S(=O)(=O)c1ccc2c(c1)/C(=C/c1cc3c([nH]1)CCCC3)C(=O)N2 [SU 6656]	–	increased	capable of growth and proliferation; also recorded: Viable	elevated	–
N#C/C(=C\c1ccc(O)c(O)c1)C(=O)NCc1ccccc1 [Tyrphostin AG 490]	–	reduced	capable of growth and proliferation; also recorded: Viable	–	elevated
